# Several values for one entry are separate records, joined by “and”; a condition that tells them apart may be missing. Equal values may be shown once. Read-outs that look alike come from different tables or passages of the source.
# Key:
# [1] = system: HepaRG cells; experiment: Time-dependent PA depletion and PANO formation in cell culture medium of HepaRG cells at 37 °C and 4 °C (LC-MS/MS)
# Procedure: (§1) In order to measure time-dependent depletion of PA and PANO content in cell culture medium, cells were seeded at a density of 0.2 × 10^6 cells per well in a 6-well plate and cultivated as described in Section 4.2. After four weeks of cultivation, cells were adapted to serum-free medium and medium substituted with insulin, transferrin, selenium (ITS) serum extender (Capricorn Scientific, Ebsdorfergrund, Germany) 48 h prior to PA incubation for optimal LC-MS/MS measurements. […] Samples were taken after 2 h, 4 h, 8 h and 24 h.
# (§2) Briefly, chromatographic separation of PA/PANO analytes was achieved on a 50 × 2.1 mm Kinetex ™ 2.6 μm CoreShell EVO C18 100 Å column protected by a SecurityGuard ™ ULTRA EVO C 18 2.1 mm guard column (both Phenomenex, Aschaffenburg, Germany) at a flow rate of 0.4 mL/min on a Shimadzu high performance liquid chromatography (HPLC) apparatus (LC-20AB, SIL-20AC HT, CTO-20AC, CBM-20A, Duisburg, Germany) coupled to an API4000 triple quadrupole MS (Sciex, Darmstadt, Germany). The following MS parameters were used for measurements in positive electrospray ionisation (ESI+) mode: ionisation voltage 2500 V, nebuliser gas 50 psi, heating gas 50 psi, curtain gas 30 psi, temperature 600 °C, collision gas level 7. The substance specific parameters are summarized in Kaltner et al. 2019 [79].
# [2] = system: HepaRG cells; experiment: PA and PANO content in cell culture medium of HepaRG cells upon pharmacological transporter inhibition (LC-MS/MS); type: in vitro ADME, human
# [3] = system: HepaRG cells; experiment: Cell viability (MTT assay) of HepaRG cells with and without transporter inhibitors; type: cell-based, human; settings: for viability [%], single replicates: repl. 1-6; for Cell viability (MTT), percent of solvent control, Mean [%]: 24 h, listed as Sc
# Procedure: (§3) In the case of TEA, cells were pre-incubated 24 h prior to PA treatment. The inhibitors were applied anew at PA incubation.
# (§4) To analyze the cytotoxic effects of PAs on HepaRG cells with non-inhibited and inhibited hepatic transporters, the cells were seeded at a density of 9000 cells per well in the inner 60 wells of a 96-well plate and cultivated as described in Section 4.2. After four weeks of cultivation, FBS concentration in the cell culture medium was reduced to 2% for 48 h prior incubation. Thereby, inhibitory effects of peptide growth factors from the FBS on xenobiotic-metabolizing enzymes were minimized. […] The cells were pre-incubated with pharmacological inhibitors as described in Section 4.3. […] Cell viability was analyzed via the MTT test. 10 µl MTT reagent (5 mg/mL MTT dissolved in phosphate-buffered saline, PBS) was added per well and incubated for 1 h at 37 °C. The supernatant was discarded, and the violet formazan crystals dissolved in 130 µL desorption solution (0.7% sodium dodecyl sulfate in propan-2-ol). After shaking for 20 min (under protection from light), absorbance was measured on a TecanM200Pro spectrometer (Tecan Group Ltd., Männedorf, Switzerland) at a wavelength of 570 nm, along with a reference wavelength of 630 nm.
# [4] = as above; type: cell-based, human; settings: human, HepaRG cells
# Procedure: as §3, §4
# [5] = system: HepaRG cells; experiment: PA and PANO content in cell culture medium of HepaRG cells upon pharmacological transporter inhibition (LC-MS/MS); type: in vitro ADME, human; remark: listed apart in the source
# Procedure: as §3, §1, §2
# [6] = mean of 6 replicates, no inhibitor, read-out: viability, MW [%]
# [7] = repl. 1-6, read-out: viability [%], single replicates
smiles,measurement,setting,value
"C/C=C1/C[C@@H](C)[C@@](C)(O)C(=O)OCC2=CCN3CC[C@@H](OC1=O)[C@@H]23 [Senecionine, senecionine]",reduction of PA content in the supernatant,[1],highest decline
same,uptake and toxicity (grading),[1],strong
same,"PANO in medium, Mean [%]",[1]; human,0%
same,"PANO in medium, single replicates (repl.)",[1]; human,0%
same,"PA in medium, single replicates (repl.)","[2]; no inhibitor, 0h",100%
same,"PA in medium, single replicates (repl.)","[2]; plus MK-571, 0h",100%
same,"viability [%], single replicates",[3]; 1 µM,104.702% and 96.5101% and 108.622% and 97.0096% and 97.8347%
same,"viability [%], single replicates",[3]; 10 µM,86.1735% and 91.8709% and 86.9963% and 83.2717% and 79.1258%
same,"viability [%], single replicates",[3]; 50 µM,59.5192% and 77.2207% and 70.6602% and 63.183% and 55.3454%
same,"viability [%], single replicates",[3]; 100 µM,53.5295% and 51.7769% and 80.0886% and 68.6733% and 54.6212% and 49.5185%
same,"viability [%], single replicates",[3]; 250 µM,44.9713% and 47.0747% and 66.5507% and 52.719% and 45.8871% and 35.0536%
same,cytotoxicity of the applied concentration,"[3]; HepaRG, 2.5 µM, Figure S2",not cytotoxic
same,"Cell viability (MTT), percent of solvent control, Mean [%]","[3]; HepaRG, 250 µM PA + CsA (10 µM, 1 h pre-incubation)",63.5771%
same,"Cell viability (MTT), percent of solvent control, Mean [%]","[3]; HepaRG, 250 µM PA + Qu (100 µM, 1 h pre-incubation)",91.9218%
same,"Cell viability (MTT), percent of solvent control, Mean [%]","[3]; HepaRG, 250 µM PA + TEA (3 mM, 24 h pre-incubation)",69.5844%
same,"Cell viability (MTT), percent of solvent control, Mean [%]","[3]; HepaRG, 250 µM PA only",46.8929%
same,"viability at 24 h, 1 µM",[4]; [6],100%
same,"viability at 24 h, 1 µM",[4]; [7],95.1%
same,"viability at 24 h, 10 µM",[4]; [6],84.6%
same,"viability at 24 h, 10 µM",[4]; [7],80%
same,"viability at 24 h, 50 µM","[4]; 50 µM, mean of 6 replicates, no inhibitor, read-out: viability, MW [%]",65%
same,"viability at 24 h, 100 µM","[4]; 100 µM, mean of 6 replicates, no inhibitor, read-out: viability, MW [%]",59.7%
same,"viability at 24 h, 250 µM","[4]; 250 µM, mean of 6 replicates, no inhibitor, read-out: viability, MW [%]",48.7%
same,"viability at 24 h, 250 µM","[4]; HepaRG, 250 µM PA only, 24 h, read-out: Cell viability (MTT), percent of solvent control, Mean [%]",46%
same,"viability at 24 h, 250 µM","[4]; with 5 µM Ko143, HepaRG, 250 µM PA + Ko143 (5 µM, 1 h pre-incubation), 24 h, read-out: Cell viability (MTT), percent of solvent control, Mean [%]",46.5%
same,"viability at 24 h, 250 µM","[4]; with 50 µM MK-571, HepaRG, 250 µM PA + MK571 (50 µM, 1 h pre-incubation), 24 h, read-out: Cell viability (MTT), percent of solvent control, Mean [%]",59.1%
same,"viability at 24 h, 250 µM","[4]; with CsA 10 µM, HepaRG, 250 µM PA + CsA (10 µM, 1 h pre-incubation), 24 h, read-out: Cell viability (MTT), percent of solvent control, Mean [%]",63%
same,"viability at 24 h, 250 µM","[4]; with Qu 100 µM, HepaRG, 250 µM PA + Qu (100 µM, 1 h pre-incubation), 24 h, read-out: Cell viability (MTT), percent of solvent control, Mean [%]",90%
same,"viability at 24 h, 250 µM","[4]; with TEA 3 mM, HepaRG, 250 µM PA + TEA (3 mM, 24 h pre-incubation), 24 h, read-out: Cell viability (MTT), percent of solvent control, Mean [%]",69%
same,"PA content in medium, single replicates","[5]; 8h, no inhibitor, repl. 1-5",8.726%
same,"PA content in medium, single replicates","[5]; 8h, plus Ko143, repl. 1-3",4.478% and 4.105%
same,"PA in medium, Mean [%]","[5]; no inhibitor, 0h",100%
same,"PA in medium, Mean [%]","[5]; no inhibitor, 4h",25.6172%
same,"PA in medium, single replicates (repl.)","[5]; no inhibitor, 4h",20.2703% and 36.4212% and 41.9726% and 18.235% and 11.1867%
same,"PA in medium, Mean [%]","[5]; no inhibitor, 8h",8.337%
same,"PA in medium, single replicates (repl.)","[5]; no inhibitor, 8h",5.95% and 13.0309% and 15.415% and 3.983% and 3.308%
same,"PA in medium, Mean [%]","[5]; no inhibitor, 24h",0.1453%
same,"PA in medium, single replicates (repl.)","[5]; no inhibitor, 24h",0% (3×) and 0.3901% and 0.3363%
same,"PA in medium, Mean [%]","[5]; plus CsA, 0h",100%
same,"PA in medium, single replicates (repl.)","[5]; plus CsA, 0h",100%
same,"PA in medium, Mean [%]","[5]; plus CsA, 4h",83.5787%
same,"PA in medium, single replicates (repl.)","[5]; plus CsA, 4h",100.41% and 74.0814%
same,"PA in medium, Mean [%]","[5]; plus CsA, 8h",79.3329%
same,"PA in medium, single replicates (repl.)","[5]; plus CsA, 8h",78.1367% and 71.9298%
same,"PA in medium, Mean [%]","[5]; plus CsA, 24h",63.0445%
same,"PA in medium, single replicates (repl.)","[5]; plus CsA, 24h",81.6295% and 67.7648% and 39.7392%
same,"PA in medium, Mean [%]","[5]; plus Ko143, 0h",100%
same,"PA in medium, single replicates (repl.)","[5]; plus Ko143, 0h",100%
same,"PA in medium, Mean [%]","[5]; plus Ko143, 4h",27.3505%
same,"PA in medium, single replicates (repl.)","[5]; plus Ko143, 4h",21.9905% and 15.6142% and 44.4468%
same,"PA in medium, Mean [%]","[5]; plus Ko143, 8h",9.179%
same,"PA in medium, single replicates (repl.)","[5]; plus Ko143, 8h",5.449% and 3.069% and 19.0198%
same,"PA in medium, Mean [%]","[5]; plus Ko143, 24h",0.2576%
same,"PA in medium, single replicates (repl.)","[5]; plus Ko143, 24h",0% (2×) and 0.7727%
same,"PA in medium, Mean [%]","[5]; plus MK-571, 0h",100%
same,"PA in medium, Mean [%]","[5]; plus MK-571, 4h",87.0627%
same,"PA in medium, single replicates (repl.)","[5]; plus MK-571, 4h",81.9366% and 96.8826% and 82.369%
same,"PA in medium, Mean [%]","[5]; plus MK-571, 8h",64.688%
same,"PA in medium, single replicates (repl.)","[5]; plus MK-571, 8h",76.7573% and 68.0778% and 49.229%
same,"PA in medium, Mean [%]","[5]; plus MK-571, 24h",22.3298%
same,"PA in medium, single replicates (repl.)","[5]; plus MK-571, 24h",51.6203% and 9.723% and 5.646%
same,"PA in medium, Mean [%]","[5]; plus Qu, 0h",100%
same,"PA in medium, single replicates (repl.)","[5]; plus Qu, 0h",100%
same,"PA in medium, single replicates (repl.)","[5]; plus Qu, 4h",89.6889% and 96.62%
same,"PA in medium, single replicates (repl.)","[5]; plus Qu, 8h",89.9877% and 75.5125% and 84.2%
same,"PA in medium, single replicates (repl.)","[5]; plus Qu, 24h",67.9609% and 61.3936% and 73.11%
same,"PA in medium, Mean [%]","[5]; plus TEA, 0h",100%
same,"PA in medium, single replicates (repl.)","[5]; plus TEA, 0h",100%
same,"PA in medium, Mean [%]","[5]; plus TEA, 4h",61.4268%
same,"PA in medium, single replicates (repl.)","[5]; plus TEA, 4h",53.1634% and 46.1792% and 84.938%
same,"PA in medium, Mean [%]","[5]; plus TEA, 8h",43.7039%
same,"PA in medium, single replicates (repl.)","[5]; plus TEA, 8h",34.8001% and 27.837%
same,"PA in medium, Mean [%]","[5]; plus TEA, 24h",19.1005%
same,"PA in medium, single replicates (repl.)","[5]; plus TEA, 24h",7.953% and 7.514% and 41.8346%
